In patent publication US20230272055A1, “ANTI-MUTANT CALRETICULIN (CALR) ANTIBODIES AND USES THEREOF” (Incyte Corporation, priority 2021, published 2023):

System: Ba/F3-TPOR/mutCALR type 1 engineered cells
Assay: Cell proliferation with antibody and/or ruxolitinib, mutCALR Type 1
Format: cell-based
Details: ruxolitinib alone at 50 nM; 72 hours; dotted line of FIG. 10 (Type 1 and Type 2 panels); read-out: inhibition of the level of oncogenic cell proliferation
Experimental: To test the ability of anti-mutCALR antibodies to potentiate the therapeutic response of the JAK1/2 inhibitor ruxolitinib, Ba/F3 cells were engineered to express MPL+mutCALR Type 1 (52 bp deletion) or MPL+mutCALR Type 2 (5 bp insertion) as described above. Cells were plated at 5,000 cells per well in RPMI 1640+2% FBS, treated with 50 nM of ruxolitinib and/or anti-mutCALR antibodies. Cells were incubated for 72 hours followed by assessment of cell viability using the CellTiter-Glo Luminescent Cell Viability Assay (Promega, Madison, Wis.) and Top Count (Perkin Elmer, Boston, Mass.) or Pherastar (BMG Labtech, Ortenberg, Germany) for luminescence quantification. Ruxolitinib used at a concentration of 50 nM inhibited the level of oncogenic cell proliferation by approximately 20% (dotted line).

SMILES: N#CC[C@H](C1CCCC1)n1cc(-c2ncnc3[nH]ccc23)cn1 [Ruxolitinib, ruxolitinib, reference compound]
- inhibition at 0.05 µM: ~20%
